Laboratory results: patent US7754751B2, “Preferential inhibition of release of pro-inflammatory cytokines” (Yung Shin Pharmaceutical Ind. Co., Ltd., priority 2004, dated 2010)

How the values were obtained:
interleukin-2 = test: LPS-induced interleukin-2 release in human PBMC; assay type: cell-based; details: 10 μM compound with LPS 25 μg/ml, 24 h
Description: (§1) Approximately 450 ml of blood was obtained from healthy human volunteers and diluted with RPMI 1640 culture medium. A Ficoll gradient (MSL; Eurobio, les Ulis, France) was used to isolate human peripheral blood mononuclear leukocytes (PBMC). The volume ratio of blood, RPMI 1640 culture medium, and MSL was 2:4:1. PBMC were obtained by centrifuging the diluted blood at 500 g at 15° C. for 20 min and washed once with RPMI 1640. The cell pellets were resuspended at a final concentration of 6×10^6 cells/ml of the same medium supplemented with 5% heat-inactivated normal human serum (a pool of sera from healthy volunteers) and antibiotics (penicillin 100 UI/ml and streptomycin 100 μg/ml). Aliquots of 500 μl of the cell suspension were dispensed into each well of a 24-well plate and incubated at 37° C. in a 5% CO2-95% air incubator in a humidified atmosphere. To wells were added lipopolysaccharide (LPS, 25 μg/ml) from smooth E. Coli 0111:B4 alone or LPS and Compound 1 (10 μM) together. After 24 h, the supernatants were collected, centrifuged at 400 g for 10 min at 15° C. and stored at −20° C. Cytokines were assayed using commercial kits manufactured by R & D Systems (Abingdon, UK). The concentrations of the cytokines were determined using an internal standard according to the manufacturer's instructions.

interferon-γ = test: LPS-induced interferon-γ release in human PBMC; assay type: cell-based; details: 10 μM compound with LPS 25 μg/ml, 24 h
Description: as §1

TNF-α = test: LPS-induced TNF-α release in human PBMC; assay type: cell-based; details: 10 μM compound with LPS 25 μg/ml, 24 h
Description: as §1

interleukin-4 = test: LPS-induced interleukin-4 release in human PBMC; assay type: cell-based; details: 10 μM compound with LPS 25 μg/ml, 24 h
Description: as §1

NF-κB = NF-κB DNA binding activity in tissue nuclear extracts of LPS-treated mice (EMSA, ELISA-based Trans-AM p65 kit); assay type: in vivo; details: ICR mice, LPS 60 mg/kg i.p., compound 10 mg/kg orally in 0.5% carboxymethyl cellulose; lung, spleen, kidney extracts
Description: Mice (25-30 g, ICR strain) were injected intraperitoneally with LPS (60 mg/kg). Most of them were orally treated with Compound 1 (10 mg/kg) in 0.5% carboxymethyl cellulose, and the rest (control mice) were orally treated with vehicle. The control mice died within 27 h after the LPS administration. The mice were euthanatized with intraperitoneal administration of pentobarbital at various time intervals after the LPS administration. Nuclear extracts of lung, spleen, and kidney tissues were prepared by a standard method. NF-κB DNA binding activity was assessed by an electrophoretic mobility shift assay according to a procedure described in Pan et al., J Biomed Sci. 2002, 9: 622-630. […] The sample was then charged to native 5% polyacrylamide gels and analyzed by autoradiography. […] NF-κB DNA binding activity was also assessed with ELISA-based Trans-AM NF-κB p65 transcription factor assay kits (Active Motif Europe, […], Belgium) according to the manufacturer's instructions. […] Specificity of NF-κB activation was determined by competition experiments using NF-κB wild-type and mutant consensus oligonucleotides that were provided with the kit.

interleukin 1β = test: LPS-induced interleukin 1β release in human PBMC; assay type: cell-based; details: 10 μM compound with LPS 25 μg/ml, 24 h
Description: as §1

interleukin 8 = test: LPS-induced interleukin 8 release in human PBMC; assay type: cell-based; details: 10 μM compound with LPS 25 μg/ml, 24 h
Description: as §1

interleukin-10 = test: LPS-induced interleukin-10 release in human PBMC; assay type: cell-based; details: 10 μM compound with LPS 25 μg/ml, 24 h
Description: as §1

OCc1ccc(-c2nn(Cc3ccccc3)c3ccccc23)o1 [Compound 1, 3-(5′-hydroxymethyl-2′-furyl)-1-benzyl-indazol]
inhibition at 10 µM (interleukin-2): > 30%
inhibition at 10 µM (interferon-γ): > 30%
inhibition at 10 µM (TNF-α): > 80%
inhibition at 10 µM (interleukin-4): < 10%
NF-κB/DNA complex level induced by LPS (NF-κB): inhibited the increase of the NF-κB/DNA complex level induced by LPS
inhibition at 10 µM (interleukin 1β): > 80%
inhibition at 10 µM (interleukin 8): > 80%
inhibition at 10 µM (interleukin-10): < 10%
